Laboratory results published in patent publication US5594024A, “Centrally actig substituted phenylazacycloalkanes” (priority 1995, dated 1997).
Like-named read-outs stand apart in the source and are kept apart here.

Tests used:
D2 receptors = biological target: T1, D2 receptors (Rattus norvegicus, UniProt P61169); assay: D2 antagonist binding ([3H]-spiperone), rat striatum
T1 construct: Preparation of rat striatal membranes for (3H)-spiperone; from tissue; host or cells: rat striatum (striatal membranes)
Method: D2 antagonist binding. Preparation of rat striatal membranes for (3H)-spiperone (specific activity 21-24 Ci/mmol) binding was carried out in a similar manner as described for D1-binding, Hyttel et al., J. Neural. Transm., 68, 171 (1987).
IC50 values were calculated by semi-log plot and linear regression analysis.

5-HT1A = biological target: T2, 5-HT1A (Rattus norvegicus, UniProt P19327); assay: 5-HT1A radioligand binding ([3H]-8-OH-DPAT); design: species or system rat (male Sprague-Dawley)
T2 construct: the whole brain with the exception of the brainstem and cerebellum was rapidly removed; from tissue
T2 sequence (P19327 1-422): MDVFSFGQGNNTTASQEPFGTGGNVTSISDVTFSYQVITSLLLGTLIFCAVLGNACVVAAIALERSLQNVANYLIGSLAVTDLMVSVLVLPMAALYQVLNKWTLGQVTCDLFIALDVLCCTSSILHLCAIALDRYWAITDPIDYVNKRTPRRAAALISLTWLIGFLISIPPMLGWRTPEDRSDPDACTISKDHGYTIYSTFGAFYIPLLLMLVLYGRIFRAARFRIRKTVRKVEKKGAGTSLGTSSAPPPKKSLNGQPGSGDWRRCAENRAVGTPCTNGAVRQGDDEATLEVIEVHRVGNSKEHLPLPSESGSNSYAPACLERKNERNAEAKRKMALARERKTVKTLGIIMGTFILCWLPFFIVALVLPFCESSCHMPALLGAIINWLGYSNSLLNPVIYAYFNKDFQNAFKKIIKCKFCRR
Method: ^b Serotonin 5HT1A ([^3 H]-8OH-DPAT, agonist) rat cortex.
5-HT1A radioligand binding. Male Sprague-Dawley rats (160-225 g) were killed by decapitation and the whole brain with the exception of the brainstem and cerebellum was rapidly removed, weighed and chilled in ice-cold 0.9% NaCl. Each brain was homogenized (Ultra-Turrax, 20 s) in 10 mL ice-cold 50 mM Tris buffer (pH 8.0 at 25° C.) containing 120 mM NaCl, 4 mM CaCl2 and 4 mM MgCl2 and centrifuged at 20,000 g's at 4° C. for 10 minutes. Pellets were resuspended in 10 mL fresh buffer and preincubated for 10 minutes in a 37° C. waterbath and then recentrifuged. Final pellets were homogenized in 100 volumes (w/v) of Tris buffer (as described above) containing 10 μM pargyline. The incubation tubes were kept on ice in triplicates and received 100 μL drug solution in water (or water for total binding) and 1000 μL membrane suspension (corresponds to 10 mg original tissue). The binding experiment was initiated by addition of 100 μL of (3H)-8-OH-DPAT (specific activity 143-158 Ci/mmol) in ascorbic acid (the final incubation concentration was 1 nM (3H)-8-OH-DPAT in 0.1% ascorbic acid). After incubation for 15 minutes at 37° C. the reaction was terminated by separation of the free radioligand from bound by rapid vacuum filtration using a cell harvester equipment (O. M. Teknik, Denmark). The tubes were rinsed with 4 mL and the filters (Whatman GF/F 25 mm) were washed twice with 4 mL ice-cold 0.9% NaCl.
The radioactivity of the filters was measured in a liquid scintillation counter (efficiency 41%) in 5 mL Picofluor®. Specific binding (70-75% of total binding) was defined as the radioactivity displaced by 10 μM 5-HT. IC50 values were calculated by semi-log plot and linear regression analysis.

DA receptor [1] = assay: DA metabolism (DOPAC, HVA levels) in habituated rats; type: in vivo, rat (male Sprague-Dawley); conditions: for response vs control in vivo at 100 µmol/kg: Rattus norvegicus, 1 h
Method: (§1) Footnotes Table 3. The rats were habituated to the motility meters 60 min
The rats were immediately killed after the activity session, striata
and limbic levels of DOPAC and 5HIAA were measured by means of HPLCEC. *p
In the experiments with habituated rats no NSD was administered and the animals were killed one hour after drug administration. […] The levels were expressed as % of controls (DOPAC and 5-HIAA see Table 3). The in vivo brain microdialysis experiments were performed in conscious rats as described by Waters et al., Eur. J. Pharm., 187, 425-34 (1990).
(§2) Injection volumes were 5 mL/kg.
After the activity session the rats were killed and the brain levels of HVA and DOPAC were measured (data are expressed as means ±SEM).

habituated rats = assay: Locomotor activity and behavior in habituated rats; type: in vivo, rat (male Sprague-Dawley); conditions: 100 μmol/kg sc, habituated rats; for response vs control in vivo at 100 µmol/kg: Rattus norvegicus, 1 h, read-out: Motor Activity
Method: as §1
prior to the activity session.
as §2
Locomotor activity was measured in rats which were habituated 60 minutes to the activity meters before drug injection. The activity was measured for the subsequent 60 minutes and expressed as % of controls (means ±SEM, n=4).

5-HT receptor = assay: 5-HTP accumulation (5-HT synthesis rate) in non-pretreated rats after NSD 1015; type: in vivo, rat (male Sprague-Dawley)
Method: observations are commented to the right. After the session the rats were
accumulation in the NErich cortical regions and 5HTP in the limbic
as §2

DA receptor [2] = assay: DOPA accumulation (DA synthesis rate) in non-pretreated rats after NSD 1015
non-pretreated rats = assay: Locomotor activity and gross behavior in non-habituated (non-pretreated) rats; conditions: non-pretreated rats; for Motor Act.: 30 min
[3] = [3H]-spiperone, rat striatum, read-out: in vitro binding IC50, D2 -spip
[4] = [3H]-8-OH-DPAT, rat cortex, read-out: in vitro binding IC50, 5HT1A
[5] = read-out: in vitro binding IC50, D2 -spip, [3H]-spiperone, rat striatum
[6] = 100 μmol/kg sc, habituated rats

T1 sequence (P61169 whole entry): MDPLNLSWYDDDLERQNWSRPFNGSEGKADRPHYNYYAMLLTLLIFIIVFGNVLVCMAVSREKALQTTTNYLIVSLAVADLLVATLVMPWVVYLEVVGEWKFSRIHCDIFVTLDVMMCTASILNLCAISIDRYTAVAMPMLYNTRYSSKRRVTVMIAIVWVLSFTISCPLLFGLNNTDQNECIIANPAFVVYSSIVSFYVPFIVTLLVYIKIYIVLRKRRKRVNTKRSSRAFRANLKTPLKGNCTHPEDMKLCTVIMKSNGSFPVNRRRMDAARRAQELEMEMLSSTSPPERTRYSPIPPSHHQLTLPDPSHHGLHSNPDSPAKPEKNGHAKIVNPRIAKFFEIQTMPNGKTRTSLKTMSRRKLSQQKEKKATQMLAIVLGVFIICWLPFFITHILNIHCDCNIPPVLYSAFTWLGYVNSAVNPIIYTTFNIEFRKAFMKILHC

Work on `N#Cc1cccc([C@@H]2CCCN(CCc3ccccc3)C2)c1` [Compound S-39, S-3-((3-Cyanophenyl)-N-(2-phenylethyl))piperidine] yielded an IC50 (D2 receptors; [3]) of 0.63 µM, an IC50 (5-HT1A; [4]) of 0.15 µM and a response vs control in vivo at 100 µmol/kg (DA receptor [1]; 100 μmol/kg sc, habituated rats, read-out: DOPAC limbic) of 169 ± 16%. For the same molecule, the response vs control in vivo at 100 µmol/kg (DA receptor [1]; 100 μmol/kg sc, habituated rats, read-out: DOPAC striatum) was 231 ± 14%, the Behavioral observations (habituated rats) was “Activation” and the response vs control in vivo at 100 µmol/kg (habituated rats; 60 min) was 511 ± 69%.
For `CCCCN1CCC[C@@H](c2cccc(C#N)c2)C1` [Compound S-36, S-3-(3-Cyanophenyl-N-n-butyl)piperidine], the IC50 (D2 receptors; [5]) was 3.7 µM and the IC50 (5-HT1A; [4]) was 5.6 µM.
`N#Cc1cccc([C@@H]2CCCNC2)c1` [Compound S-31, S-3-(3-Cyanophenyl)piperidine] was tested, and the IC50 (D2 receptors; [3]) was 16 µM, the IC50 (5-HT1A) was 10 µM and the DOPAC limbic (DA receptor [1]; [6]) was 153 ± 1%. For the same molecule, the DOPAC striatum (DA receptor [1]; [6]) was 167 ± 8 % of saline treated controls, the Behavioral observations (habituated rats) was “Activation” and the “Motor Activity” value (habituated rats; 60 min) was 431 ± 80 % of saline treated controls.
In the case of `CCN1CCC[C@@H](c2cccc(C#N)c2)C1` [S-(-)-33, S-(-)-3-(3-Cyanophenyl-N-ethyl)piperidine], the IC50 (D2 receptors) is reported as 14 µM, the IC50 (5-HT1A; [4]) is reported as 22 µM and the “5-HTP acc Limbic Region” value (5-HT receptor; 25 sc) is reported as 83 ± 3 % of saline controls. For the same molecule, the “5-HTP acc Limbic Region” value (5-HT receptor; 100 sc) was 77 ± 3 % of saline controls, the response vs control in vivo at 100 µmol/kg (DA receptor [1]; sc, read-out: DOPAC limbic) was 153 ± 15% and the response vs control in vivo at 100 µmol/kg (DA receptor [1]; sc, read-out: DOPAC striatum) was 167 ± 8%. For the same molecule, the Behavioral observations (habituated rats) was “Activation”, the response vs control in vivo at 100 µmol/kg (habituated rats; 60 min) was 431 ± 80% and the “DOPA acc Cortex” value (DA receptor [2]; 25 sc) was 108 ± 7 % of saline controls. For the same molecule, the “DOPA acc Stratium” value (DA receptor [2]; 25 sc) was 282 ± 11 % of saline controls, the “DOPA acc Cortex” value (DA receptor [2]; 100 sc) was 137 ± 7 % of saline controls and the “DOPA acc Stratium” value (DA receptor [2]; 100 sc) was 318 ± 19 % of saline controls. For the same molecule, the “Gross Behavioral Observations” value (non-pretreated rats; 25 sc) was “Weak stimul”, the “Motor Act.” value (non-pretreated rats; 25 sc) was 157 ± 7 % of saline controls and the “Gross Behavioral Observations” value (non-pretreated rats; 100 sc) was “No change”. The “Motor Act.” value (non-pretreated rats; 100 sc) was 113 ± 7 % of saline controls.
Work on `CCCN1CCC[C@@H](c2cccc(C(=O)OC)c2)C1` [Compound S-25, S-3-(3-(Methoxycarbonyl)phenyl-N-n-propyl)piperidine] yielded an IC50 (D2 receptors; [3]) of 16 µM and an IC50 (5-HT1A; [4]) of 2 µM.
`C=CCN1CCC[C@@H](c2cccc(C#N)c2)C1` [Compound S-37, S-3-(3-Cyanophenyl-N-allyl)piperidine] gave an IC50 (D2 receptors; [5]) of 8.2 µM, an IC50 (5-HT1A; [4]) of 12 µM and a response vs control in vivo at 100 µmol/kg (DA receptor [1]; sc, read-out: DOPAC limbic) of 205 ± 17%.
Molecule `CCCN1CCC[C@@H](c2cccc(OC)c2)C1` [S-i, S-3-(3-Methoxyphenyl-N-n-propyl)piperidine] has an IC50 (D2 receptors; [3]) of 21 µM and an IC50 (5-HT1A; [4]) of 4.5 µM.
In the case of `C=Cc1cccc([C@@H]2CCCN(CCC)C2)c1` [(-)-R-41], the “5-HTP acc Limbic Region” value (5-HT receptor; 100 sc) is reported as 65 ± 2 % of saline controls, the “DOPA acc Cortex” value (DA receptor [2]; 100 sc) is reported as 121 ± 29 % of saline controls and the “DOPA acc Stratium” value (DA receptor [2]; 100 sc) is reported as 171 ± 15 % of saline controls. The “Gross Behavioral Observations” value (non-pretreated rats; 100 sc) was “No change” and the “Motor Act.” value (non-pretreated rats; 100 sc) was 125 ± 13 % of saline controls.
`CCCN1CCCC(c2ccc(OS(=O)(=O)C(F)(F)F)cc2)C1` (racemic) [Racemic-20, 3-((4-(Trifluoromethyl)sulfonyl)oxyphenyl-N-n-propyl)piperidine] gave an IC50 (D2 receptors; [3]) of 71 µM and an IC50 (5-HT1A; [4]) of 14 µM.
With `CCCN1CCCC(c2ccccc2OS(=O)(=O)C(F)(F)F)C1` (racemic) [Racemic-19, 3-((2-(Trifluoromethyl)sulfonyl)oxyphenyl-N-n-propyl)piperidine] the IC50 (5-HT1A; [4]) was 1.4 µM, the Behavioral observations (habituated rats) was “No activation” and the response vs control in vivo at 100 µmol/kg (habituated rats; 60 min) was 101 ± 14%.
